# Source: patent US7803930B2, “Antisense modulation of apolipoprotein B-expression” (Isis Pharmaceuticals, Inc., priority 2002, dated 2010)
# In the oligonucleotide strings, read from the 5' end, every base follows the letter of its sugar. An asterisk marks phosphorothioate; unmarked linkages are phosphodiester. Other units and linkages are bracketed, terminal groups are in braces. A string of capitals states the bases alone. e = 2'-O-(2-methoxyethyl) (MOE); [5mC] = 5-methylcytosine; d = 2'-deoxy (DNA)
# System: mouse apolipoprotein B mRNA
# Assay: Inhibition of mouse apolipoprotein B mRNA levels in primary mouse hepatocytes, real-time PCR
# Format: cell-based
# Conditions: Table 3, 150 nM, averages from two experiments
# Protocol: Primary mouse hepatocytes were prepared from CD-1 mice purchased from Charles River Labs (Wilmington, Mass.) and were routinely cultured in Hepatoyte Attachment Media (Gibco) supplemented with 10% Fetal Bovine Serum (Gibco/Life Technologies, Gaithersburg, Md.), 250 nM dexamethasone (Sigma), and 10 nM bovine insulin (Sigma). Cells were seeded into 96-well plates (Falcon-Primaria #3872) at a density of 10000 cells/well for use in RT-PCR analysis.
# When cells reached 80% confluency, they were treated with oligonucleotide. For cells grown in 96-well plates, wells were washed once with 200 μL OPTI-MEM™-1 reduced-serum medium (Gibco BRL) and then treated with 130 μL of OPTI-MEM™-1 containing 3.75 μg/mL LIPOFECTIN™ (Gibco BRL) and the desired concentration of oligonucleotide. After 4-7 hours of treatment, the medium was replaced with fresh medium. Cells were harvested 16-24 hours after oligonucleotide treatment.
# Quantitation of apolipoprotein B mRNA levels was determined by real-time quantitative PCR using the ABI PRISM™ 7700 Sequence Detection System (PE-Applied Biosystems, Foster City, Calif.) according to manufacturer's instructions. This is a closed-tube, non-gel-based, fluorescence detection system which allows high-throughput quantitation of polymerase chain reaction (PCR) products in real-time. As opposed to standard PCR, in which amplification products are quantitated after the PCR is completed, products in real-time quantitative PCR are quantitated as they accumulate. This is accomplished by including in the PCR reaction an oligonucleotide probe that anneals specifically between the forward and reverse PCR primers, and contains two fluorescent dyes. A reporter dye (e.g., JOE, FAM, or VIC, obtained from either Operon Technologies Inc., Alameda, Calif. or PE-Applied Biosystems, Foster City, Calif.) is attached to the 5′ end of the probe and a quencher dye (e.g., TAMRA, obtained from either Operon Technologies Inc., Alameda, Calif. or PE-Applied Biosystems, Foster City, Calif.) is attached to the 3′ end of the probe. When the probe and dyes are intact, reporter dye emission is quenched by the proximity of the 3′ quencher dye. During amplification, annealing of the probe to the target sequence creates a substrate that can be cleaved by the 5′-exonuclease activity of Taq polymerase. […] With each cycle, additional reporter dye molecules are cleaved from their respective probes, and the fluorescence intensity is monitored at regular intervals by laser optics built into the ABI PRISM™ 7700 Sequence Detection System. In each assay, a series of parallel reactions containing serial dilutions of mRNA from untreated control samples generates a standard curve that is used to quantitate the percent inhibition after antisense oligonucleotide treatment of test samples.
# Probes and primers to mouse apolipoprotein B were designed to hybridize to a mouse apolipoprotein B sequence, using published sequence information (GenBank accession number M35186, incorporated herein as SEQ ID NO: 10). For mouse apolipoprotein B the PCR primers were: forward primer: CGTGGGCTCCAGCATTCTA (SEQ ID NO: 11) reverse primer: […] (SEQ ID NO: 12) and the PCR probe was: FAM-[…]-TAMRA SEQ ID NO: 13) where FAM (PE-Applied Biosystems, Foster City, Calif.) is the fluorescent reporter dye) and TAMRA (PE-Applied Biosystems, Foster City, Calif.) is the quencher dye. For mouse GAPDH the PCR primers were: forward primer: […] (SEQ ID NO: 14) reverse primer: […] (SEQ ID NO:15) and the PCR probe was: 5′ JOE-[…]-TAMRA 3′ (SEQ ID NO: 16) where JOE (PE-Applied Biosystems, Foster City, Calif.) is the fluorescent reporter dye) and TAMRA (PE-Applied Biosystems, Foster City, Calif.) is the quencher dye.
# In accordance with the present invention, a series of oligonucleotides was designed to target different regions of the mouse apolipoprotein B RNA, using published sequence (GenBank accession number M35186, incorporated herein as SEQ ID NO: 10). […]
row,Substance,% INHIB [%]
1,147770 (eG*eT*eG*eT*eT*dG*dA*dA*dT*d[5mC]*d[5mC]*d[5mC]*dT*dT*dG*eA*eA*eA*eT*e[5mC]; antisense) [compound 147770],67
2,147767 (e[5mC]*eG*eT*e[5mC]*e[5mC]*dT*dT*dG*dA*dG*d[5mC]*dA*dG*dT*dG*e[5mC]*e[5mC]*e[5mC]*eG*eA; antisense) [compound 147767],5
3,147776 (antisense eG*e[5mC]*eT*eT*eG*dA*dA*dG*dT*dT*d[5mC]*dA*dT*dT*dG*eA*eG*eA*eA*eT) [compound 147776],92
4,147476 (eG*eA*eG*eG*eA*dG*dA*dT*dT*dG*dG*dA*dT*d[5mC]*dT*eT*eA*eA*eG*eG; antisense) [compound 147476],13
5,147480 (eT*e[5mC]*eT*e[5mC]*eA*d[5mC]*d[5mC]*d[5mC]*dT*d[5mC]*dA*dT*dG*d[5mC]*dT*e[5mC]*e[5mC]*eA*eT*eT; antisense) [compound 147480],54
6,147762 (eA*eT*eG*e[5mC]*eT*d[5mC]*d[5mC]*dA*dT*dT*d[5mC]*dT*d[5mC]*dA*d[5mC]*eA*eT*eG*e[5mC]*eT; antisense) [compound 147762],46
7,147487 (eT*eT*e[5mC]*e[5mC]*e[5mC]*dA*dG*dT*d[5mC]*dA*dG*d[5mC]*dT*dT*dT*eA*eG*eT*eG*eG; antisense) [compound 147487],73
8,147478 (eT*e[5mC]*e[5mC]*eA*eG*dG*dA*dA*dT*dT*dG*dA*dG*d[5mC]*dT*eT*eG*eT*eG*e[5mC]; antisense) [compound 147478],78
9,147489 (e[5mC]*e[5mC]*eT*eA*eT*dA*d[5mC]*dT*dG*dG*d[5mC]*dT*dT*d[5mC]*dT*eA*eT*eG*eT*eT; antisense) [compound 147489],5
10,147507 (eA*eT*eT*eG*eG*d[5mC]*dT*dT*d[5mC]*dA*dT*dT*dG*dG*d[5mC]*eA*eA*e[5mC]*eA*e[5mC]; antisense) [compound 147507],81
11,147768 (e[5mC]*e[5mC]*e[5mC]*eA*eT*dA*dT*dG*dG*dA*dG*dA*dA*dA*dT*e[5mC]*e[5mC]*eT*eT*e[5mC]; antisense) [compound 147768],24
12,147496 (eA*e[5mC]*e[5mC]*eA*eT*dG*dG*dA*dA*dA*dA*d[5mC]*dT*dG*dG*e[5mC]*eA*eA*e[5mC]*eT; antisense) [compound 147496],19
13,147482 (eG*eT*e[5mC]*e[5mC]*eA*dG*d[5mC]*d[5mC]*dT*dA*dG*dG*dA*dA*d[5mC]*eA*e[5mC]*eT*e[5mC]*eA; antisense) [compound 147482],59
14,147492 (e[5mC]*eA*eA*eT*eG*dG*dA*dA*dT*dG*d[5mC]*dT*dT*dG*dT*e[5mC]*eA*e[5mC]*eT*eG; antisense) [compound 147492],68
15,147778 (antisense eT*e[5mC]*eA*eG*eA*dT*dA*dT*dA*d[5mC]*dA*dT*dT*dG*dG*e[5mC]*eT*eT*e[5mC]*eA) [compound 147778],14
16,147506 (eA*eG*eG*eA*eA*dG*dG*dA*dA*d[5mC]*dT*d[5mC]*dT*dT*dG*eA*eT*eA*eT*eT; antisense) [compound 147506],58
17,147503 (eA*eA*eT*eG*eG*dA*dT*dG*dA*dT*dG*dA*dA*dA*d[5mC]*eA*eG*eT*eG*eG; antisense) [compound 147503],26

row,Substance,% INHIB [%]
1,147763 (eT*eG*e[5mC]*eG*eA*d[5mC]*dT*dG*dT*dG*dT*d[5mC]*dT*dG*dA*eT*eT*eT*e[5mC]*e[5mC]; antisense) [compound 147763],34
2,147502 (eA*eT*eG*eG*eG*dA*dG*d[5mC]*dA*dT*dG*dG*dA*dG*dG*eT*eT*eG*eG*e[5mC]; antisense) [compound 147502],16
3,147769 (e[5mC]*eA*eT*eG*e[5mC]*d[5mC]*dT*dG*dG*dA*dA*dG*d[5mC]*d[5mC]*dA*eG*eT*eG*eT*e[5mC]) [compound 147769],89
4,147761 (eG*eT*eT*e[5mC]*eA*dT*dG*dG*dA*dT*dT*d[5mC]*d[5mC]*dT*dT*e[5mC]*eA*eG*eG*eA; antisense) [compound 147761],45
5,147772 (antisense eG*eT*eT*eA*eT*dA*dA*dA*dG*dT*d[5mC]*d[5mC]*dA*dG*d[5mC]*eA*eT*eT*eG*eG) [compound 147772],78
6,147484 (eT*eT*e[5mC]*eA*eT*d[5mC]*d[5mC]*dG*dA*dG*dA*dA*dG*dT*dT*eG*eG*eG*eA*e[5mC]; antisense) [compound 147484],49
7,147498 (eT*eG*eG*eG*e[5mC]*dA*dA*d[5mC]*dG*dA*dT*dA*dT*d[5mC]*dT*eG*eA*eT*eT*eG; antisense) [compound 147498],0
8,147765 (eA*eG*eG*e[5mC]*e[5mC]*d[5mC]*dA*dG*dT*dT*d[5mC]*d[5mC]*dA*dT*dG*eA*e[5mC]*e[5mC]*e[5mC]*eT; antisense) [compound 147765],59
9,147774 (antisense eT*eG*eG*e[5mC]*eT*dA*dG*dT*dT*dT*d[5mC]*dA*dA*dT*d[5mC]*e[5mC]*e[5mC]*e[5mC]*eT*eT) [compound 147774],84
10,147773 (antisense e[5mC]*eA*eT*e[5mC]*eA*dG*dA*d[5mC]*dG*dT*dG*dA*dT*dG*dT*eT*e[5mC]*e[5mC]*e[5mC]*eT) [compound 147773],85
11,147485 (eA*eT*eT*eT*eG*dG*dG*dA*d[5mC]*dG*dA*dA*dT*dG*dT*eA*eT*eG*e[5mC]*e[5mC]; antisense) [compound 147485],64
12,147775 (antisense e[5mC]*eT*eG*eT*e[5mC]*dA*dT*dG*dA*d[5mC]*dT*dG*d[5mC]*d[5mC]*d[5mC]*eT*eT*eT*eA*e[5mC]) [compound 147775],52
13,147499 (e[5mC]*eT*eG*e[5mC]*eA*dG*dG*dG*d[5mC]*dG*dT*d[5mC]*dA*dG*dT*eG*eA*e[5mC]*eA*eA; antisense) [compound 147499],29
14,147493 (eG*e[5mC]*eT*eT*e[5mC]*dA*dT*dT*dA*dT*dA*dG*dG*dA*dG*eG*eT*eG*eG*eT; antisense) [compound 147493],41
15,147495 (eG*eT*eT*eA*eG*dG*dA*d[5mC]*d[5mC]*dA*dG*dG*dG*dA*dT*eT*eG*eT*eG*eA; antisense) [compound 147495],0
16,147475 (eA*eT*eT*eG*eT*dA*dT*dG*dT*dG*dA*dG*dA*dG*dG*eT*eG*eA*eG*eG; antisense) [compound 147475],79

# Same assay, conditions: Table 4, 50 nM
row,Substance,Percent Inhibition 50 nM [%]
1,147776 (antisense eG*e[5mC]*eT*eT*eG*dA*dA*dG*dT*dT*d[5mC]*dA*dT*dT*dG*eA*eG*eA*eA*eT) [compound 147776],0
2,147769 (e[5mC]*eA*eT*eG*e[5mC]*d[5mC]*dT*dG*dG*dA*dA*dG*d[5mC]*d[5mC]*dA*eG*eT*eG*eT*e[5mC]) [compound 147769],3

# Same assay, conditions: Table 4, 150 nM
row,Substance,Percent Inhibition 150 nM [%]
1,147776 (antisense eG*e[5mC]*eT*eT*eG*dA*dA*dG*dT*dT*d[5mC]*dA*dT*dT*dG*eA*eG*eA*eA*eT) [compound 147776],17
2,147769 (e[5mC]*eA*eT*eG*e[5mC]*d[5mC]*dT*dG*dG*dA*dA*dG*d[5mC]*d[5mC]*dA*eG*eT*eG*eT*e[5mC]) [compound 147769],14

# Same assay, conditions: Table 4, 300 nM
row,Substance,Percent Inhibition 300 nM [%]
1,147776 (antisense eG*e[5mC]*eT*eT*eG*dA*dA*dG*dT*dT*d[5mC]*dA*dT*dT*dG*eA*eG*eA*eA*eT) [compound 147776],44
2,147769 (e[5mC]*eA*eT*eG*e[5mC]*d[5mC]*dT*dG*dG*dA*dA*dG*d[5mC]*d[5mC]*dA*eG*eT*eG*eT*e[5mC]) [compound 147769],28
